# Reference: US20190194607A1, “HIGHLY FUNCTIONAL LIVER CELLS DERIVED FROM PLURIPOTENT STEM CELLS, METHOD FOR PRODUCING SAME, AND METHOD FOR TESTING METABOLISM/TOXICITY OF DRUG” (DNAVEC CORPORATION, priority 2011, published 2019)
# Key:
# [1] = test system: hepatocytes derived from a #40 cell line; test: PGE1 pretreatment before D-GalN administration: deviation enzymes in culture supernatant; assay type: cell-based, human; settings: 4 mM PGE1 pretreatment, 37° C. for 4 hours, then D-GalN administration; FIG. 16
# Description: (§1) D-Galactosamine (D-GalN), which is known to have toxicity to hepatocytes, was added to pluripotent stem cell-derived hepatocytes at a final concentration of 25 mM, followed by culture at 37° C. After 24 hours, 1.5 mL of culture supernatant was collected and was centrifuged at 15000 rpm at 4° C. to completely remove cell components. The concentrations of liver-derived deviation enzymes contained in the supernatant, i.e., glutamic oxaloacetic transaminase (GOT), glutamic pyruvic transaminase (GPT), γ-glutamyl transpeptidase (y-GTP), leucine aminopeptidase (LAP), lactate dehydrogenase (LDH), and LDH isozyme (LDH 1 to 5), were measured (performed at BML Inc., Shibuya, Tokyo, Japan).
# That is, 4 mM PGE1 was added to hepatocytes derived from a #40 cell line in advance, and the hepatocytes were cultured at 37° C. for 4 hours and were subjected to a D-GalN administration experiment as in above. […] Similar tendencies were detected in the samples of hepatocyte differentiation induction from other human iPS cell lines and human ES cell lines.
# HepaRG cells = test: Drug toxicity test: deviation enzymes in culture supernatant, HepaRG cells; assay type: cell-based, human; settings: cultured in the presence of D-GalN; FIG. 15(G)
# Description: (§2) The HepaRG cells were cultured in accordance with the protocol of BIOPREDIC international. The HepG2 cells were purchased from Health Science Research Resources Bank, and the human primary cultured adult hepatocyte cell line was purchased from DS Pharma Biomedical Co., Ltd. (Osaka, Japan). They were cultured using a CS-C medium kit of Cell Systems Corporation (Kirkland, WA, USA). In the figure, 253G1 refers to a human iPS cell line established at Kyoto University, #40 refers to a human iPS cell line established at National Center for Child Health and Development, SeV refers to an iPS cell line induced using a SeV vector, ES-K1 refers to a human ES cell line established at Kyoto University, and CTL is an abbreviation of control.
# as §1
# [2] = test system: undifferentiated SeV-iPS cells; test: Drug toxicity test: deviation enzymes in culture supernatant, undifferentiated SeV-iPS cells; assay type: cell-based, human; settings: cultured in the presence of D-GalN; FIG. 15(F)
# [3] = test system: undifferentiated ES cells; test: Drug toxicity test: deviation enzymes in culture supernatant, undifferentiated human ES cells; assay type: cell-based; settings: D-GalN 25 mM, 24 hours; FIG. 15(B)
# [4] = test system: SeV-iPS-derived hepatocytes; test: Drug toxicity test: deviation enzymes in culture supernatant, SeV-iPS-derived hepatocytes; assay type: cell-based, human; settings: cultured in the presence of D-GalN; FIG. 15(E)
# Description: as §1
# HepG2 cells = test: Drug toxicity test: deviation enzymes in culture supernatant, HepG2 cells; assay type: cell-based, human; settings: cultured in the presence of D-GalN; FIG. 15(H)
# Description: as §2, §1
# [5] = test system: hepatocytes derived human iPS cells (#40); test: Drug toxicity test: deviation enzymes in culture supernatant, human iPS cell-derived hepatocytes; assay type: cell-based; settings: D-GalN 25 mM, 24 hours; FIG. 15(C)
# Description: as §1
# [6] = test system: undifferentiated ES cells; test: Drug toxicity test: deviation enzymes in culture supernatant, undifferentiated cells of FIG. 15(D); assay type: cell-based, human; settings: D-GalN 25 mM, 24 hours
# [7] = test system: hepatocytes derived from human ES cells (KhES-1 cell line); test: Drug toxicity test: liver deviation enzymes in culture supernatant, human ES cell-derived hepatocytes; assay type: cell-based; settings: D-GalN 25 mM, 24 hours; hepatocytes 28th day from differentiation induction; FIG. 15(A)
# Description: as §1
structure (smiles),measurement,setting,value
"CCCCC[C@H](O)/C=C/[C@H]1[C@H](O)CC(=O)[C@@H]1CCCCCCC(=O)O [PGE1, prostaglandin E1]",levels of all the deviation enzymes from the liver detected in the culture supernatant after D-GalN,[1],significantly suppressed
"N[C@H]1C(O)O[C@H](CO)[C@H](O)[C@@H]1O (stereo partly drawn) [D-GalN, D-Galactosamine]",level of GOT in the culture supernatant,HepaRG cells,increased
same,level of GPT in the culture supernatant,HepaRG cells,increased
same,level of LAP in the culture supernatant,HepaRG cells,increased
same,level of LDH-5 in the culture supernatant,HepaRG cells,increased
same,level of γ-GTP in the culture supernatant,HepaRG cells,did not increase
same,level of GOT in the culture supernatant,[2],did not increase
same,levels of all of the deviation enzymes in culture supernatant,[3],did not increase
same,level of GOT in the culture supernatant,[4],increased
same,level of GOT in the culture supernatant,HepG2 cells,increased
same,level of GPT in the culture supernatant,HepG2 cells,increased
same,level of LAP in the culture supernatant,HepG2 cells,did not increase
same,level of LDH-5 in the culture supernatant,HepG2 cells,increased
same,level of γ-GTP in the culture supernatant,HepG2 cells,did not increase
same,LDH isozyme pattern,[5],“liver damage-type” pattern in which type 4 and type 5 are dominant
same,level of GOT in culture supernatant,[5],increased
same,level of GPT in culture supernatant,[5],increased
same,level of LAP in culture supernatant,[5],increased
same,level of LDH in culture supernatant,[5],increased
same,level of γ-GTP in culture supernatant,[5],increased
same,level of GOT in culture supernatant,[6],did not increase
same,level of GPT in culture supernatant,[6],did not increase
same,level of LAP in culture supernatant,[6],did not increase
same,level of LDH in culture supernatant,[6],did not increase
same,level of γ-GTP in culture supernatant,[6],did not increase
same,LDH isozyme pattern,[7],“liver damage-type” pattern in which type 4 and type 5 are dominant
same,level of GOT in culture supernatant,[7],increased
same,level of LAP in culture supernatant,[7],increased
same,level of LDH in culture supernatant,[7],increased
same,level of γ-GTP in culture supernatant,[7],increased
